Assay results: patent US9695155B2, “Herbicidal substituted pyrimidinyloxy benzene compounds” (E. I. DU PONT DE NEMOURS AND COMPANY, priority 2013, dated 2017)

What was measured:
[1] = system: corn; assay: Test A postemergence; assay type: in vivo, Zea mays
Procedure, shortened: (§1)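 Scoring: eye-based comparison with untreated controls, 0 for no effect through 100 for complete control, at about day 10. Treatments: directed soil spray preemergence; foliar spray postemergence on 2–10 cm plants at the one- to two-leaf stage. Medium: loam soil with sand.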

[2] = system: velvetleaf; assay: Test A preemergence; assay type: in vivo, Abutilon theophrasti
Procedure, shortened: as §1

[3] = system: rice; assay: Test B flooded paddy test; assay type: in vivo, Oryza sativa; conditions: Flood, 250 g ai/ha; 0 to 100 scale where 0 is no effect and 100 is complete control
Procedure, shortened: (§2)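 2-leaf stage plants; pots flooded to 3 cm, compound added to paddy water, depth maintained. Greenhouse 13–15 d. Visual rating vs untreated controls, 0 (no effect) to 100 (complete control); dash = no result.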

[4] = system: corn; assay: Test A preemergence; assay type: in vivo, Zea mays
Procedure, shortened: as §1

[5] = system: wheat; assay: Test A preemergence; assay type: in vivo, Triticum aestivum
Procedure, shortened: as §1

[6] = system: wheat; assay: Test A postemergence; assay type: in vivo, Triticum aestivum
Procedure, shortened: as §1

[7] = system: barnyardgrass; assay: Test A preemergence; assay type: in vivo, Echinochloa crus-galli
Procedure, shortened: as §1

[8] = system: large (Lg) crabgrass; assay: Test A postemergence; assay type: in vivo, Digitaria sanguinalis
Procedure, shortened: as §1

[9] = system: pigweed; assay: Test A postemergence; assay type: in vivo, Amaranthus retroflexus
Procedure, shortened: as §1

[10] = system: velvetleaf; assay: Test A postemergence; assay type: in vivo, Abutilon theophrasti
Procedure, shortened: as §1

[11] = system: giant foxtail; assay: Test A preemergence; assay type: in vivo, Setaria faberii
Procedure, shortened: as §1

[12] = system: morningglory; assay: Test A postemergence; assay type: in vivo, Ipomoea spp.
Procedure, shortened: as §1

[13] = system: sedge, umbrella; assay: Test B flooded paddy test; assay type: in vivo, Cyperus difformis; conditions: Flood, 250 g ai/ha; 0 to 100 scale where 0 is no effect and 100 is complete control
Protocol: (§3) Plant species in the flooded paddy test selected from rice (Oryza sativa), sedge, umbrella (small-flower umbrella sedge, Cyperus difformis), (Heteranthera limosa), and barnyardgrass (Echinochloa crus-galli) were grown to the 2-leaf stage for testing. At time of treatment, test pots were flooded to 3 cm above the soil surface, treated by application of test compounds directly to the paddy water, and then maintained at that water depth for the duration of the test. Treated plants and controls were maintained in a greenhouse for 13 to 15 days, after which time all species were compared to controls and visually evaluated. Plant response ratings, summarized in Table B, are based on a scale of 0 to 100 where 0 is no effect and 100 is complete control. A dash (-) response means no test result.

[14] = system: barnyardgrass; assay: Test B flooded paddy test; assay type: in vivo, Echinochloa crus-galli; conditions: Flood, 250 g ai/ha; 0 to 100 scale where 0 is no effect and 100 is complete control
Protocol: as §3

[15] = system: giant foxtail; assay: Test A postemergence; assay type: in vivo, Setaria faberii
Procedure, shortened: as §1

[16] = system: Heteranthera limosa; assay: Test B flooded paddy test; assay type: in vivo; conditions: Flood, 250 g ai/ha; 0 to 100 scale where 0 is no effect and 100 is complete control
Procedure, shortened: as §2

[17] = system: large (Lg) crabgrass; assay: Test A preemergence; assay type: in vivo, Digitaria sanguinalis
Procedure, shortened: as §1

[18] = system: barnyardgrass; assay: Test A postemergence; assay type: in vivo, Echinochloa crus-galli
Procedure, shortened: as §1

[19] = system: morningglory; assay: Test A preemergence; assay type: in vivo, Ipomoea spp.
Procedure, shortened: as §1

[20] = system: pigweed; assay: Test A preemergence; assay type: in vivo, Amaranthus retroflexus
Procedure, shortened: as §1

[21] = 125 g ai/ha, 0 to 100 scale where 0 is no effect and 100 is complete control
[22] = 500 g ai/ha, 0 to 100 scale, 0 no effect, 100 complete control
[23] = 500 g ai/ha, 0 to 100 scale, 0 no effect, 100 complete control, approx. 10 days
[24] = 125 g ai/ha, 0 to 100 scale, 0 no effect, 100 complete control
[25] = 500 g ai/ha, 0 to 100 scale where 0 is no effect and 100 is complete control

SMILES: CC(C)(C)c1ccn(-c2ccccc2Oc2ncc(Br)cn2)n1 [Compound 30]
- Plant response rating, Corn [1, 21]: 0
- Plant response rating, Corn [1, 22]: 0
- Plant response rating, Velvetleaf [2, 21]: 10
- Velvetleaf plant response rating [2, 23]: 40
- Plant response rating, Rice [3]: 0
- Plant response rating, Corn [4, 21]: 0
- Corn plant response rating [4, 23]: 0
- Plant response rating, Wheat [5, 21]: 0
- Wheat plant response rating [5, 23]: 0
- Plant response rating, Wheat [6, 21]: 0
- Plant response rating, Wheat [6, 22]: 0
- Plant response rating, Barnyardgrass [7, 21]: 0
- Barnyardgrass plant response rating [7, 23]: 10
- Plant response rating, Crabgrass, Large [8, 21]: 30
- Plant response rating, Crabgrass, Large [8, 22]: 40
- Plant response rating, Pigweed [9, 21]: 0
- Plant response rating, Pigweed [9, 22]: 30
- Plant response rating, Velvetleaf [10, 21]: 20
- Plant response rating, Velvetleaf [10, 22]: 30
- Plant response rating, Foxtail, Giant [11, 21]: 0
- Foxtail, Giant plant response rating [11, 23]: 30
- Plant response rating, Morningglory [12, 21]: 0
- Plant response rating, Morningglory [12, 22]: 0
- Plant response rating, Sedge, Umbrella [13]: 0
- Plant response rating, Barnyardgrass [14]: 0
- Plant response rating, Foxtail, Giant [15, 21]: 10
- Plant response rating, Foxtail, Giant [15, 22]: 10
- Plant response rating, Ducksalad [16]: 0
- Plant response rating, Crabgrass, Large [17, 21]: 40
- Crabgrass, Large plant response rating [17, 23]: 60
- Plant response rating, Barnyardgrass [18, 21]: 10
- Plant response rating, Barnyardgrass [18, 22]: 10
- Plant response rating, Morningglory [19, 21]: 0
- Morningglory plant response rating [19, 23]: 0
- Plant response rating, Pigweed [20, 21]: 0
- Pigweed plant response rating [20, 23]: 0

SMILES: N#Cc1cccc(Oc2ncc(I)cn2)c1-n1cc(Br)cn1 [Compound 60]
- Plant response rating, Corn [1, 21]: 0
- Plant response rating, Corn [1, 22]: 30
- Plant response rating, Velvetleaf [2, 21]: 0
- Velvetleaf plant response rating [2, 23]: 40
- Plant response rating, Rice [3]: 0
- Plant response rating, Corn [4, 21]: 0
- Corn plant response rating [4, 23]: 0
- Plant response rating, Wheat [5, 21]: 0
- Wheat plant response rating [5, 23]: 0
- Plant response rating, Wheat [6, 21]: 0
- Plant response rating, Wheat [6, 22]: 10
- Plant response rating, Barnyardgrass [7, 21]: 0
- Barnyardgrass plant response rating [7, 23]: 70
- Plant response rating, Crabgrass, Large [8, 21]: 10
- Plant response rating, Crabgrass, Large [8, 22]: 70
- Plant response rating, Pigweed [9, 21]: 50
- Plant response rating, Pigweed [9, 22]: 100
- Plant response rating, Velvetleaf [10, 21]: 50
- Plant response rating, Velvetleaf [10, 22]: 100
- Plant response rating, Foxtail, Giant [11, 21]: 20
- Foxtail, Giant plant response rating [11, 23]: 90
- Plant response rating, Morningglory [12, 21]: 10
- Plant response rating, Morningglory [12, 22]: 50
- Plant response rating, Sedge, Umbrella [13]: 0
- Plant response rating, Barnyardgrass [14]: 0
- Plant response rating, Foxtail, Giant [15, 21]: 20
- Plant response rating, Foxtail, Giant [15, 22]: 80
- Plant response rating, Ducksalad [16]: 0
- Plant response rating, Crabgrass, Large [17, 21]: 40
- Crabgrass, Large plant response rating [17, 23]: 100
- Plant response rating, Barnyardgrass [18, 21]: 20
- Plant response rating, Barnyardgrass [18, 22]: 50
- Plant response rating, Morningglory [19, 21]: 0
- Morningglory plant response rating [19, 23]: 0
- Plant response rating, Pigweed [20, 21]: 30
- Pigweed plant response rating [20, 23]: 100

SMILES: FC(F)(F)c1cnc(Oc2ccccc2-n2cc(C(F)(F)F)cn2)nc1 [Compound 17]
- Plant response rating, Corn [1, 21]: 0
- Plant response rating, Corn [1, 22]: 40
- Velvetleaf plant response rating [2, 21]: 70
- Velvetleaf plant response rating [2, 23]: 90
- Plant response rating, Rice [3]: 25
- Corn plant response rating [4, 21]: 0
- Corn plant response rating [4, 23]: 0
- Wheat plant response rating [5, 21]: 0
- Wheat plant response rating [5, 23]: 70
- Plant response rating, Wheat [6, 21]: 0
- Plant response rating, Wheat [6, 22]: 50
- Barnyardgrass plant response rating [7, 21]: 50
- Barnyardgrass plant response rating [7, 23]: 60
- Plant response rating, Crabgrass, Large [8, 21]: 20
- Plant response rating, Crabgrass, Large [8, 22]: 90
- Plant response rating, Pigweed [9, 21]: 70
- Plant response rating, Pigweed [9, 22]: 100
- Plant response rating, Velvetleaf [10, 21]: 50
- Plant response rating, Velvetleaf [10, 22]: 100
- Foxtail, Giant plant response rating [11, 21]: 60
- Foxtail, Giant plant response rating [11, 23]: 90
- Plant response rating, Morningglory [12, 21]: 20
- Plant response rating, Morningglory [12, 22]: 50
- Plant response rating, Sedge, Umbrella [13]: 90
- Plant response rating, Barnyardgrass [14]: 0
- Plant response rating, Foxtail, Giant [15, 21]: 20
- Plant response rating, Foxtail, Giant [15, 22]: 90
- Plant response rating, Ducksalad [16]: 75
- Crabgrass, Large plant response rating [17, 21]: 40
- Crabgrass, Large plant response rating [17, 23]: 90
- Plant response rating, Barnyardgrass [18, 21]: 0
- Plant response rating, Barnyardgrass [18, 22]: 20
- Morningglory plant response rating [19, 21]: 0
- Morningglory plant response rating [19, 23]: 20
- Pigweed plant response rating [20, 21]: 100
- Pigweed plant response rating [20, 23]: 100

SMILES: CNN=Cc1cccc(Oc2ncc(Cl)cn2)c1-n1cc(Br)cn1 [Compound 289]
- Plant response rating, Corn [1, 24]: 0
- Plant response rating, Corn [1, 25]: 10
- Velvetleaf plant response rating (0 to 100 scale) ([2]; 125 g ai/ha): 0
- Velvetleaf plant response rating [2, 25]: 10
- Plant response rating, Rice [3]: 0
- Corn plant response rating (0 to 100 scale) ([4]; 125 g ai/ha): 0
- Corn plant response rating [4, 25]: 0
- Wheat plant response rating (0 to 100 scale) ([5]; 125 g ai/ha): 0
- Wheat plant response rating [5, 25]: 0
- Plant response rating, Wheat [6, 24]: 0
- Plant response rating, Wheat [6, 25]: 0
- Barnyardgrass plant response rating (0 to 100 scale, 0 is no effect, 100 is complete control) ([7]; 125 g ai/ha): 0
- Barnyardgrass plant response rating [7, 25]: 20
- Plant response rating, Crabgrass, Large [8, 24]: 0
- Plant response rating, Crabgrass, Large [8, 25]: 20
- Plant response rating, Pigweed [9, 24]: 100
- Plant response rating, Pigweed [9, 25]: 100
- Plant response rating, Velvetleaf [10, 24]: 10
- Plant response rating, Velvetleaf [10, 25]: 40
- Foxtail, Giant plant response rating (0 to 100 scale) ([11]; 125 g ai/ha): 0
- Foxtail, Giant plant response rating [11, 25]: 10
- Plant response rating, Morningglory [12, 24]: 20
- Plant response rating, Morningglory [12, 25]: 50
- Plant response rating, Sedge, Umbrella [13]: 0
- Plant response rating, Barnyardgrass [14]: 0
- Plant response rating, Foxtail, Giant [15, 24]: 0
- Plant response rating, Foxtail, Giant [15, 25]: 30
- Plant response rating, Ducksalad [16]: 0
- Crabgrass, Large plant response rating (0 to 100 scale) ([17]; 125 g ai/ha): 0
- Crabgrass, Large plant response rating [17, 25]: 10
- Plant response rating, Barnyardgrass [18, 24]: 0
- Plant response rating, Barnyardgrass [18, 25]: 20
- Morningglory plant response rating (0 to 100 scale) ([19]; 125 g ai/ha): 0
- Morningglory plant response rating [19, 25]: 0
- Pigweed plant response rating (0 to 100 scale) ([20]; 125 g ai/ha): 20
- Pigweed plant response rating [20, 25]: 100

SMILES: FC(F)(F)c1ccn(-c2ccccc2Oc2ncc(Br)cn2)n1 [Compound 1]
- Plant response rating, Corn [1, 21]: 0
- Plant response rating, Corn [1, 22]: 10
- Velvetleaf plant response rating [2, 21]: 0
- Velvetleaf plant response rating [2, 23]: 20
- Plant response rating, Rice [3]: 0
- Corn plant response rating [4, 21]: 0
- Corn plant response rating [4, 23]: 0
- Wheat plant response rating [5, 21]: 0
- Wheat plant response rating [5, 23]: 0
- Plant response rating, Wheat [6, 21]: 0
- Plant response rating, Wheat [6, 22]: 0
- Barnyardgrass plant response rating [7, 21]: 20
- Barnyardgrass plant response rating [7, 23]: 70
- Plant response rating, Crabgrass, Large [8, 21]: 20
- Plant response rating, Crabgrass, Large [8, 22]: 50
- Plant response rating, Pigweed [9, 21]: 50
- Plant response rating, Pigweed [9, 22]: 100
- Plant response rating, Velvetleaf [10, 21]: 20
- Plant response rating, Velvetleaf [10, 22]: 70
- Foxtail, Giant plant response rating [11, 21]: 60
- Foxtail, Giant plant response rating [11, 23]: 100
- Plant response rating, Morningglory [12, 21]: 0
- Plant response rating, Morningglory [12, 22]: 20
- Plant response rating, Sedge, Umbrella [13]: 0
- Plant response rating, Barnyardgrass [14]: 0
- Plant response rating, Foxtail, Giant [15, 21]: 10
- Plant response rating, Foxtail, Giant [15, 22]: 60
- Plant response rating, Ducksalad [16]: 0
- Crabgrass, Large plant response rating [17, 21]: 50
- Crabgrass, Large plant response rating [17, 23]: 100
- Plant response rating, Barnyardgrass [18, 21]: 10
- Plant response rating, Barnyardgrass [18, 22]: 30
- Morningglory plant response rating [19, 21]: 0
- Morningglory plant response rating [19, 23]: 0
- Pigweed plant response rating [20, 21]: 60
- Pigweed plant response rating [20, 23]: 100
